*1 amine or outer side, *2 acyl side, *3 side chain or, on linkers, in order; H or OH if unused. Where a SMILES comes first, the peptide text is derived from it. Bridges are numbered along the chain shown (N, C = ends). [ ]: non-standard residue; d: D form. The star is where a group is joined. ξ: configuration not given here. X1 = CC[C@H](C)[C@@H](N[*:1])[C@@H](O)CC(=O)O[C@H](C(=O)[C@H](C)C(=O)[*:2])C(C)C; X2 = CC[C@H](C)[C@@H](N[*:1])[C@@H](O)CC(=O)[*:2]; X3 = C[C@H](O[Si](C)(C)C(C)(C)C)C(=O)*; NMeY = CN[C@@H](Cc1ccc(O)cc1)C(=O)O; X6 = O=C1NC2CSC(CCCCC(=O)*)C2N1; dNMeL = CN[C@H](CC(C)C)C(=O)O; Hiv = CC(C)[C@H](O)C(=O)O; Isobutyryl = CC(C)C(=O)*; dLac = C[C@@H](O)C(=O)O; Hexanoyl = CCCCCC(=O)*; Boc = CC(C)(C)OC(=O)*; Lac = C[C@H](O)C(=O)O; CO = O=C([*:1])[*:2]; X5 = S=C(Nc1ccccc1)*; Butyryl = CCCC(=O)*; NHPh = c1ccc(N*)cc1; ξP = O=C(O)C1CCCN1; Ms = CS(=O)(=O)*; NHBu = CCCCN*

This note sets out measurements from patent publication US20080009435A1, “Synthetic methods for aplidine and new antitumoral derivatives, methods of making and using them” (Pharma Mar, S.A., a Spain corporation, priority 2000, published 2008).

Assay [1] concerns A549 human lung carcinoma. As to the kind of experiment: Cytotoxicity IC50 (after Berjeron et al). The following applies: Homo sapiens, A549, read-out: Cytotoxicity of aplidine derivatives IC50 (Molar) A549.
Description: (§1) Methodology: after Berjeron et al, Biochem and Bioph Res. Comm., 1984, 121, 3, 848-854.
(§2) P388=Murine lymphoma. A549=human lung carcinoma. HT-29=human colon carcinoma. MEL-28=human melanoma.
(§3) A549=human lung carcinoma. HT-29=human colon carcinoma. MEL-28=human melanoma.
The subject of assay [2] is HT-29 human colon carcinoma. Briefly: Cytotoxicity IC50 (after Berjeron et al). The following applies: Homo sapiens, HT-29, read-out: Cytotoxicity of aplidine derivatives IC50 (Molar) HT29.
Description: as §1, §2, §3

In the case of `CC[C@H](C)[C@H]1NC(=O)[C@@H](NC(=O)[C@@H](CC(C)C)N(C)C(=O)CCCCC2SCC3NC(=O)NC32)[C@@H](C)OC(=O)[C@H](Cc2ccc(OC)cc2)N(C)C(=O)[C@@H]2CCCN2C(=O)[C@H](CC(C)C)NC(=O)[C@@H](C)C(=O)[C@H](C(C)C)OC(=O)C[C@@H]1O` (stereo partly shown) [8BISAPL1, [Biotin]^8-didemnin A] (X6-[dNMeL]T[X1]LP[NMeY](Me); ester 2-C), the IC50 in assay [1] and in assay [2] was 4.27 nM each time.

Regarding `CCCC(=O)N(C)[C@H](CC(C)C)C(=O)N[C@@H]1C(=O)N[C@H]([C@@H](C)CC)[C@@H](O)CC(=O)O[C@@H](C(C)C)C(=O)N[C@@H](CC(C)C)C(=O)N2CCC[C@H]2C(=O)N(C)[C@@H](Cc2ccc(OC)cc2)C(=O)O[C@@H]1C` [8BSHPL1, [Hiv]^3-[Butyryl]^8-didemnin A] (Butyryl-[dNMeL]T[X2][Hiv]LP[NMeY](Me); ester 2-C), the IC50 in assay [1] and in assay [2] was 1.04 nM in each case.

`CCCCNC(=S)N(C)[C@H](CC(C)C)C(=O)N[C@@H]1C(=O)N[C@H]([C@@H](C)CC)[C@@H](O)CC(=O)O[C@@H](C(C)C)C(=O)[C@H](C)C(=O)N[C@@H](CC(C)C)C(=O)N2CCC[C@H]2C(=O)N(C)[C@@H](Cc2ccc(OC)cc2)C(=O)O[C@@H]1C` [8BTSAPL1, [Butylthiourea]^8-didemnin A]: the IC50 in assay [1] and in assay [2] was 0.945 nM in each case.

With `CCCCNC(=O)N(C)[C@H](CC(C)C)C(=O)N[C@@H]1C(=O)N[C@H]([C@@H](C)CC)[C@@H](O)CC(=O)O[C@@H](C(C)C)C(=O)[C@H](C)C(=O)N[C@@H](CC(C)C)C(=O)N2CCC[C@H]2C(=O)N(C)[C@@H](Cc2ccc(OC)cc2)C(=O)O[C@@H]1C` [8BUSAPL1, [Butylurea]^8-didemnin A] ({NHBu-CO}-[dNMeL]T[X1]LP[NMeY](Me); ester 2-C), the IC50 in assay [1] and in assay [2] was 0.0959 nM each time.

As for `CCCCCC(=O)N(C)[C@H](CC(C)C)C(=O)N[C@@H]1C(=O)N[C@H]([C@@H](C)CC)[C@@H](O)CC(=O)O[C@@H](C(C)C)C(=O)N[C@@H](CC(C)C)C(=O)N2CCC[C@H]2C(=O)N(C)[C@@H](Cc2ccc(OC)cc2)C(=O)O[C@@H]1C` [8HSHPL1, [Hiv]^3-[hexanoyl]^8-didemnin A] (Hexanoyl-[dNMeL]T[X2][Hiv]LP[NMeY](Me); ester 2-C), the IC50 in assay [1] and in assay [2] was 10.1 nM each time.

As for `CC[C@H](C)[C@H]1NC(=O)[C@@H](NC(=O)[C@@H](CC(C)C)N(C)C(=O)C(C)C)[C@@H](C)OC(=O)[C@H](Cc2ccc(OC)cc2)N(C)C(=O)[C@@H]2CCCN2C(=O)[C@H](CC(C)C)NC(=O)[C@H](C(C)C)OC(=O)C[C@@H]1O` [8ISHPL1, [Hiv]^3-[isobutyryl]^8-didemnin A] (Isobutyryl-[dNMeL]T[X2][Hiv]LP[NMeY](Me); ester 2-C), the IC50 in assay [1] and in assay [2] was 0.522 nM throughout.

`CC[C@H](C)[C@H]1NC(=O)[C@@H](NC(=O)[C@@H](CC(C)C)N(C)C(=O)C(C)C)[C@@H](C)OC(=O)[C@H](Cc2ccc(OC)cc2)N(C)C(=O)[C@@H]2CCCN2C(=O)[C@H](CC(C)C)NC(=O)[C@H](C(C)C)NC(=O)C[C@@H]1O` [8ISVPL1, [Val]^3-[Isobutyryl]^8-didemnin A] (Isobutyryl-[dNMeL]T[X2]VLP[NMeY](Me); ester 2-C): the IC50 in assay [1] and in assay [2] was 0.105 nM each time.

Take `CC[C@H](C)[C@H]1NC(=O)[C@@H](NC(=O)[C@@H](CC(C)C)N(C)S(C)(=O)=O)[C@@H](C)OC(=O)[C@H](Cc2ccc(OC)cc2)N(C)C(=O)[C@@H]2CCCN2C(=O)[C@H](CC(C)C)NC(=O)[C@@H](C)C(=O)[C@H](C(C)C)OC(=O)C[C@@H]1O` [8MSAPL1, [Methylsulphonyl]^8-didemnin A] (Ms-[dNMeL]T[X1]LP[NMeY](Me); ester 2-C): the IC50 in assay [1] and in assay [2] was 0.979 nM throughout.

Take `CC[C@H](C)[C@H]1NC(=O)[C@@H](NC(=O)[C@@H](CC(C)C)N(C)C(=O)[C@@H]2CCCN2C(=O)OC(C)(C)C)[C@@H](C)OC(=O)[C@H](Cc2ccc(OC)cc2)N(C)C(=O)[C@@H]2CCCN2C(=O)[C@H](CC(C)C)NC(=O)[C@H](C(C)C)OC(=O)C[C@@H]1O` [8PSHPL2, [Hiv]^3-[Boc-Pro]^8-didemnin A] (Boc-P[dNMeL]T[X2][Hiv]LP[NMeY](Me); ester 3-C): the IC50 in assay [1] and in assay [2] was 0.922 nM each time.

As for `CC[C@H](C)[C@H]1NC(=O)[C@@H](NC(=O)[C@@H](CC(C)C)N(C)C(=S)Nc2ccccc2)[C@@H](C)OC(=O)[C@H](Cc2ccc(OC)cc2)N(C)C(=O)[C@@H]2CCCN2C(=O)[C@H](CC(C)C)NC(=O)[C@@H](C)C(=O)[C@H](C(C)C)OC(=O)C[C@@H]1O` [8PTSAPL1, [Pheylthiourea]^8-didemnin A] (X5-[dNMeL]T[X1]LP[NMeY](Me); ester 2-C), the IC50 in assay [1] and in assay [2] was 0.927 nM each time.

Turning to `CC[C@H](C)[C@H]1NC(=O)[C@@H](NC(=O)[C@@H](CC(C)C)N(C)C(=O)Nc2ccccc2)[C@@H](C)OC(=O)[C@H](Cc2ccc(OC)cc2)N(C)C(=O)[C@@H]2CCCN2C(=O)[C@H](CC(C)C)NC(=O)[C@@H](C)C(=O)[C@H](C(C)C)OC(=O)C[C@@H]1O` [8PUSAPL1, [Phenylurea]^8-didemnin A] ({NHPh-CO}-[dNMeL]T[X1]LP[NMeY](Me); ester 2-C), the IC50 in assay [1] and in assay [2] was 0.0942 nM in each case.

For the molecule `CC[C@H](C)[C@H]1NC(=O)[C@@H](NC(=O)[C@@H](CC(C)C)N(C)C(=O)[C@@H](NC(=O)C(C)C)C(C)C)[C@@H](C)OC(=O)[C@H](Cc2ccc(OC)cc2)N(C)C(=O)[C@@H]2CCCN2C(=O)[C@H](CC(C)C)NC(=O)[C@H](C(C)C)OC(=O)C[C@@H]1O` [8V9ISHPL1, [Hiv]^3-[Val]^8-[Isobutyryl]^9-didemnin A] (Isobutyryl-V[dNMeL]T[X2][Hiv]LP[NMeY](Me); ester 3-C), the IC50 in assay [1] and in assay [2] was 9.46 nM throughout.

Turning to `CC[C@H](C)[C@H]1NC(=O)[C@@H](NC(=O)[C@@H](CC(C)C)N(C)C(=O)[C@@H](N)C(C)C)[C@@H](C)OC(=O)[C@H](Cc2ccc(OC)cc2)N(C)C(=O)[C@@H]2CCCN2C(=O)[C@H](CC(C)C)NC(=O)[C@H](C(C)C)OC(=O)C[C@@H]1O` [8VSHPL1, [Hiv]^3-[Val]^8-didemnin A] (H-V[dNMeL]T[X2][Hiv]LP[NMeY](Me); ester 3-C), the IC50 in assay [1] and in assay [2] was 1.01 nM each time.

Consider `CC[C@H](C)[C@H]1NC(=O)[C@@H](NC(=O)[C@@H](CC(C)C)N(C)C(=O)[C@@H](NC(=O)OC(C)(C)C)C(C)C)[C@@H](C)OC(=O)[C@H](Cc2ccc(OC)cc2)N(C)C(=O)[C@@H]2CCCN2C(=O)[C@H](CC(C)C)NC(=O)[C@H](C(C)C)OC(=O)C[C@@H]1O` [8VSHPL2, [Hiv]^3-[Boc-Val]^8-didemnin A] (Boc-V[dNMeL]T[X2][Hiv]LP[NMeY](Me); ester 3-C), for which the IC50 in assay [1] and in assay [2] was 9.21 nM in each case.

Turning to `CC[C@H](C)[C@H]1NC(=O)[C@@H](NC(=O)[C@@H](CC(C)C)N(C)C(=O)[C@@H]2CCCN2C(=O)[C@H](C)NC(=O)OC(C)(C)C)[C@@H](C)OC(=O)[C@H](Cc2ccc(OC)cc2)N(C)C(=O)[C@@H]2CCCN2C(=O)[C@H](CC(C)C)NC(=O)[C@H](C(C)C)OC(=O)C[C@@H]1O` [9BASHPL2, [Hiv]^3-[Boc-Ala]^9-aplidine] (Boc-AP[dNMeL]T[X2][Hiv]LP[NMeY](Me); ester 4-C), the IC50 in assay [1] and in assay [2] was 8.65 nM in each case.

With `CC[C@H](C)[C@H]1NC(=O)[C@@H](NC(=O)[C@@H](CC(C)C)N(C)C(=O)[C@@H]2CCCN2C(=O)C(C)C)[C@@H](C)OC(=O)[C@H](Cc2ccc(OC)cc2)N(C)C(=O)[C@@H]2CCCN2C(=O)[C@H](CC(C)C)NC(=O)[C@H](C(C)C)OC(=O)C[C@@H]1O` [9ISHPL1, [Hiv]^3-[Isobutyryl]^9-aplidine] (Isobutyryl-P[dNMeL]T[X2][Hiv]LP[NMeY](Me); ester 3-C), the IC50 in assay [1] and in assay [2] was 0.474 nM throughout.

For `CC[C@H](C)[C@H]1NC(=O)[C@@H](NC(=O)[C@@H](CC(C)C)N(C)C(=O)[C@@H]2CCCN2C(=O)C(C)C)[C@@H](C)OC(=O)[C@H](Cc2ccc(OC)cc2)N(C)C(=O)[C@@H]2CCCN2C(=O)[C@H](CC(C)C)NC(=O)[C@H](C(C)C)NC(=O)C[C@@H]1O` [9ISVPL1, [Val]^3-[Isobutyryl]^9-aplidine] (Isobutyryl-P[dNMeL]T[X2]VLP[NMeY](Me); ester 3-C), the IC50 in assay [1] and in assay [2] was 0.475 nM each time.

As for `CC[C@H](C)[C@H]1NC(=O)[C@@H](NC(=O)[C@@H](CC(C)C)N(C)C(=O)C2CCCN2C(=O)[C@@H](C)O)[C@@H](C)OC(=O)[C@H](Cc2ccc(OC)cc2)N(C)C(=O)[C@@H]2CCCN2C(=O)[C@H](CC(C)C)NC(=O)[C@H](C(C)C)OC(=O)C[C@@H]1O` (stereo partly drawn) [9LSHPL1(D), [Hiv]^3-[D-Lac]^9-aplidine] (H-[dLac][ξP][dNMeL]T[X2][Hiv]LP[NMeY](Me); ester 4-C), the IC50 in assay [1] and in assay [2] was 0.947 nM throughout.

Turning to `CC[C@H](C)[C@H]1NC(=O)[C@@H](NC(=O)[C@@H](CC(C)C)N(C)C(=O)C2CCCN2C(=O)[C@H](C)O)[C@@H](C)OC(=O)[C@H](Cc2ccc(OC)cc2)N(C)C(=O)[C@@H]2CCCN2C(=O)[C@H](CC(C)C)NC(=O)[C@H](C(C)C)OC(=O)C[C@@H]1O` (stereo partly drawn) [9LSHPL1(L), [Hiv]^3-[L-Lac]^9-aplidine, reference compound] (H-[Lac][ξP][dNMeL]T[X2][Hiv]LP[NMeY](Me); ester 4-C), the IC50 in assay [1] and in assay [2] was 0.947 nM throughout.

Turning to `CC[C@H](C)[C@H]1NC(=O)[C@@H](NC(=O)[C@@H](CC(C)C)N(C)C(=O)C2CCCN2C(=O)[C@H](C)O[Si](C)(C)C(C)(C)C)[C@@H](C)OC(=O)[C@H](Cc2ccc(OC)cc2)N(C)C(=O)[C@@H]2CCCN2C(=O)[C@H](CC(C)C)NC(=O)[C@H](C(C)C)OC(=O)C[C@@H]1O` (stereo partly drawn) [9LSHPL2(L), [Hiv]^3-[L-Lac(OTBDMS)]^9-aplidine] (X3-[ξP][dNMeL]T[X2][Hiv]LP[NMeY](Me); ester 3-C), the IC50 in assay [1] and in assay [2] was 8.55 nM throughout.
